The compounds below were run against NADH-ubiquinone oxidoreductase chain 1 (Bos taurus, UniProt P03887) (assay: Inhibition of bovine heart mitochondrial complex 1).
NADH-ubiquinone oxidoreductase chain 1, sequence (P03887 whole entry): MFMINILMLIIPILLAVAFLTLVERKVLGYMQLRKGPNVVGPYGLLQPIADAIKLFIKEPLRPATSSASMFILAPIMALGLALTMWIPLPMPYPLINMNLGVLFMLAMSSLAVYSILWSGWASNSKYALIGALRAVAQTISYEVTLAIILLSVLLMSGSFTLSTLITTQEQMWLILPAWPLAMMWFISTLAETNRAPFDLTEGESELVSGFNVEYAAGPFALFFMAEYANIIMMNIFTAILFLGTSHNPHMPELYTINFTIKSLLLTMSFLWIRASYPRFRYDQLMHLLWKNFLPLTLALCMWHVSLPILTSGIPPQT

Structure (SMILES)	IC50
CCCCCCCCCCCC[C@@H](O)[C@H]1CC[C@H]([C@H](O)CCCCCCCCCCCCC2=C[C@H](CF)OC2=O)O1	2.9 nM
CCCCCCCCCCCC[C@@H](O)[C@H]1CC[C@H]([C@H](O)CCCCCCCCCCCCC2=C[C@H](C(F)F)OC2=O)O1	31 nM
CCCCCCCCCCCC[C@@H](O)[C@H]1CC[C@H]([C@H](O)CCCCCCCCCCCCC2=C[C@H](C(F)(F)F)OC2=O)O1	310 nM
CCCCCCCCCCCC[C@@H](O)[C@H]1CC[C@H]([C@H](O)CCCCCCCCCCCCC2=C[C@@H](C)OC2=O)O1	270 nM
CCCCCCCCCCCC[C@@H](O)[C@H]1CC[C@H]([C@H](O)CCCCCCCCCCCCC2=C[C@@H](C(F)(F)F)OC2=O)O1	570 nM
CCCCCCCCCCCC[C@@H](O)[C@H]1CC[C@H]([C@H](O)CCCCCCCCCCCCC2=C[C@H](C)OC2=O)O1 [REL-SOLAMIN]	2.1 nM
